This note sets out measurements from patent publication US20100291247A1, “OIL FORMULATIONS AND METHODS OF USE” (priority 2007, published 2010).

A word on the LC50: it is the concentration lethal to half of the exposed cells or organisms. Low values mean greater toxicity, high ones lower toxicity.

Each structure is given as a SMILES string.

A short description of this data set: LC50 of vanillin MEC formulation (pathogen not named). The settings on record: ppm of Vanillin, applied as 15% MEC formulation; organism not given. Format: in vivo. The text has this: The unit commonly used in the art to determine the effectiveness of the antipathogenic formulation is LC50. This number represents the concentration of formulation at which 50% of pathogens die.

Consider `COc1cc(C=O)ccc1O` [Vanillin, 4-Hydroxy-3-Methoxybenzaldehyde], for which the LC50 was found to be 66 ppm.
